Data set [1] addresses T1, Brd4 bromodomain 1 (Homo sapiens, UniProt O60885).
T1 construct: made in house; host or cells: E. coli BL21(DE3)
Put plainly: Inhibition of tetra-acetylated histone H4 binding to BET bromodomain (TR-FRET). Also on record: key: Active: Compounds with an IC50 value less than 30 μM were deemed to be active.; Not Active: Compounds with an IC50 value less than 30 μM were deemed to be active. The settings on record: Brd4 bromodomain 1, tetra-acetylated histone H4 peptide. The protocol:
Proteins were cloned and overexpressed with a N-terminal 6×His tag, then purified by nickel affinity followed by size exclusion chromatography. Briefly, E. coli BL21(DE3) cells were transformed with a recombinant expression vector encoding N-terminally Nickel affinity tagged bromodomains from Brd2, Brd3, Brd4. Cell cultures were incubated at 37° C. with shaking to the appropriate density and induced overnight with IPTG. The supernatant of lysed cells was loaded onto Ni-IDA column for purification. Eluted protein is pooled, concentrated and further purified by size exclusion chromatography. Fractions representing monomeric protein were pooled, concentrated, aliquoted, and frozen at −80° C. for use in subsequent experiments.
Binding of tetra-acetylated histone H4 and BET bromodomains was confirmed by a Time Resolved Fluorescence Resonance Energy Transfer (TR-FRET) method. N-terminally His-tagged bromodomains (200 nM) and biotinylated tetra-acetylated histone H4 peptide (25-50 nM, Millipore) were incubated in the presence of Europium Cryptate-labeled streptavidin (Cisbio Cat. #610SAKLB) and XL665-labeled monoclonal anti-His antibody (Cisbio Cat. #61HISXLB) in a white 96 well microtiter plate (Greiner). For inhibition assays, serially diluted test compound was added to these reactions in a 0.2% final concentration of DMSO. Final buffer concentrations were 30 mM HEPES pH 7.4, 30 mM NaCl, 0.3 mM CHAPS, 20 mM phosphate pH 7.0, 320 mM KF, 0.08% BSA). After 2 hours incubation at room temperature, the fluorescence by FRET was measured at 665 and 620 nm by a SynergyH4 plate reader (Biotek). The binding inhibitory activity was shown by a decrease in 665 nm fluorescence relative to 620 nm. IC50 values were determined from a dose response curve.
On the technique in general: TR-FRET usually uses a lanthanide donor and a delayed reading to cut background.

The test system of data set [2] is c-myc. Put plainly: Inhibition of c-myc expression (mRNA, real-time PCR) in MV4-11 cells. It is filed as cell-based. Also on record: key: Active: Compounds with an IC50 value less than 30 μM were deemed to be active.; Not Active: Compounds with an IC50 value less than 30 μM were deemed to be active. The following applies: Human AML MV4-11 cells, 3 hours. The protocol: MV4-11 cells (2.5×10^4 cells) were plated in 96 well U-bottom plates with test compound or DMSO (0.1%), and incubated for 3 hours at 37° C. Cells were then harvested by centrifugation, lysed, and mRNA was isolated using the mRNA catcher plus kit (Invitrogen). Reverse transcription of the mRNA and duplex amplification of the c-myc and cyclophilin cDNAs was performed using the RNA Ultrasense kit (Invitrogen) and a ViiA7 real-time PCR machine (Applied Biosystems). IC50 values were determined from a dose response curve.
(Real-time PCR tracks product formation cycle by cycle.)

The test system of data set [3] is Human AML MV-4-11 cells. Put plainly: Inhibition of cell proliferation in MV4-11 cells. It is filed as cell-based. Also on record: key: Active: Compounds with an IC50 value less than 30 μM are deemed to be active.; Not Active: Compounds with an IC50 value less than 30 μM are deemed to be active. The settings on record: 72 hours. The protocol: MV4-11 cells: 96-well plates were seeded with 5×10^4 cells per well of exponentially growing human AML MV-4-11 (CRL-9591) cells and immediately treated with two-fold dilutions of test compounds, ranging from 30 μM to 0.2 μM. Triplicate wells were used for each concentration, as well as a media only and three DMSO control wells. The cells and compounds were incubated at 37° C., 5% CO2 for 72 hours before adding 20 μL of the CellTiter Aqueous One Solution (Promega) to each well and incubating at 37° C., 5% CO2 for an additional 3-4 hours. The absorbance was taken at 490 nm in a spectrophotometer and the percentage of proliferation relative to DMSO-treated cells was calculated after correction from the blank well. IC50 were calculated using the GraphPad Prism software.

Data set [4] concerns hIL-6 mRNA. The data set can be described thus: Inhibition of hIL-6 mRNA transcription in LPS-stimulated U937 macrophages. Also on record: key: Active: Compounds with an IC50 value less than 30 μM are deemed to be active.; Not Active: Compounds with an IC50 value less than 30 μM are deemed to be active. It is filed as cell-based, human. The following applies: U937 cells differentiated with PMA, 1 h pretreatment, LPS 3 h. Here is the method: In this example, hIL-6 mRNA in tissue culture cells was quantitated to measure the transcriptional inhibition of hIL-6 when treated with a compound of the present disclosure.
A human leukemic monocyte lymphoma cell line (U937) was plated (3.2×10^4 cells per well) in a 96-well plate in […] RPMI-1640 containing 10% FBS and penicillin/streptomycin, and differentiated into macrophages for 3 days in 60 ng/mL PMA ([…]) at 37° C. in 5% CO2 prior to the addition of the compound of interest. The cells were pretreated for 1 h with the test compound prior to stimulation with 1 ug/mL lipopolysaccharide from Escherichia coli. The cells were incubated at 37-C for 3 h before the cells were harvested. At time of harvest, the spent media was removed from the cells and the cells were rinsed in 200 μL PBS. Cell lysis solution (70 μL) was added the cells in each well and incubated for 5-10 min at room temperature, to allow for complete cell lysis and detachment. mRNA was then prepared using the “mRNA Catcher PLUS plate” (Invitrogen), according to the protocol supplied. After the last wash, as much wash buffer as possible was aspirated without allowing the wells to dry. Elution buffer (E3, 70 μL) was then added to each well. mRNA was then eluted by incubating the mRNA Catcher PLUS plate with Elution Buffer for 5 min at 68° C. and then immediately placing the plate on ice.
The eluted mRNA isolated was then used in a one-step quantitative real-time PCR reaction, using components of the Ultra Sense Kit together with Applied Biosystems primer-probe mixes. Real-time PCR data was analyzed, normalizing the Ct values for hIL-6 to an internal control, prior to determining the fold induction of each unknown sample, relative to the control.

Data set [5] deals with hApoA-1 mRNA. Put plainly: Up-regulation of hApoA-1 mRNA transcription in Huh7 cells. The following applies: 48 hrs treatment, ApoA-I mRNA. It is filed as cell-based, human. Also on record: key: Active: Compounds with an EC170 value less than 30 μM are deemed to be active.; Not Active: Compounds with an EC170 value less than 30 μM are deemed to be active. Here is the method:
In this example, ApoA-I mRNA in tissue culture cells was quantitated to measure the transcriptional up-regulation of ApoA-I when treated with a compound of the present disclosure.
Huh7 cells ([…] per well) were plated in a 96-well plate using 100 μL DMEM per well, (Gibco DMEM supplemented with penicillin/streptomycin and 10% FBS), 24 h before the addition of the compound of interest. After 48 hrs treatment, the spent media was removed from the Huh-7 cells and placed on ice (for immediate use) or at −80° C. (for future use) with the “LDH cytotoxicity assay Kit II” from Abcam. The cells remaining in the plate were rinsed with 100 μL PBS.
Then 85 μL of cell lysis solution was added to each well and incubated for 5-10 minutes at room temperature, to allow for complete cell lysis and detachment. mRNA was then prepared using the “mRNA Catcher PLUS plate” from Life Technologies, according to the protocol supplied. After the last wash, as much wash buffer as possible was aspirated without allowing the wells to dry. Elution Buffer (E3, 80 μL) was then added to each well. mRNA was then eluted by incubating the mRNA Catcher PLUS plate with Elution Buffer for 5 minutes at 68° C., and then 1 minute at 4° C. Catcher plates with mRNA eluted were kept on ice for use or stored at −80° C.
The eluted mRNA isolated was then used in a one-step real-time PCR reaction, using components of the Ultra Sense Kit together with Life Technologies primer-probe mixes. Real-time PCR data was analyzed, using the Ct values, to determine the fold induction of each unknown sample, relative to the control (that is, relative to the control for each independent DMSO concentration).
Compounds with an EC170 value less than 30 μM are deemed to be active.

Counter-ions that a name gives are not always drawn.

The melting point is the temperature of the solid-liquid transition.

Turning to `COc1cc(OC)c2c(=O)[nH]c(-c3cccc(N4CCN(CCS(C)(=O)=O)CC4)n3)nc2c1` [Example 6, 5,7-Dimethoxy-2-(6-(4-(2-(methylsulfonyl)ethyl)piperazin-1-yl)pyridin-2-yl)quinazazolin-4(3H)-one], the “FRET activity (IC50 < 30 μM)” value in data set [1] is “Active”. Further, in data set [2], the “c-myc activity (IC50 < 30 μM)” value is “Not Active”. Also, the “cell proliferation activity (IC50 < 30 μM)” value (“cell proliferation activity” below) in data set [3] is “Not Active”. Also, the “IL-6 activity (IC50 < 30 μM)” value in data set [4] is given as “Active”. For the same compound, the “ApoA-1 activity (EC170 < 30 μM)” value in data set [5] is recorded as “Active”.
Regarding `COc1cc(OC)c2c(=O)[nH]c(-c3ccc(OCCNC(C)C)c(N4CCN(C(C)C)CC4)n3)nc2c1` [Example 12, 2-(5-(2-(Isopropylamino)ethoxy)-6-(4-isopropylpiperazin-1-yl)pyridin-2-yl)-5,7-dimethoxyquinazolin-4(3H)-one bis(trifluoroacetate)], the “FRET activity (IC50 < 30 μM)” value in data set [1] was “Active”. Also, the “c-myc activity (IC50 < 30 μM)” value in data set [2] is “Active”. Moreover, the “cell proliferation activity” value in data set [3] is “Active”. In addition, the “IL-6 activity (IC50 < 30 μM)” value in data set [4] is recorded as “Not Active”. Besides, in data set [5], the “ApoA-1 activity (EC170 < 30 μM)” value is “Active”.
The compound `COc1cc(OC)c2c(=O)[nH]c(-c3ccc(OCCNC(C)C)c(N4CCN(C(C)C)CC4)n3)nc2c1` (as salt: trifluoroacetate) [Example 12, 2-(5-(2-(Isopropylamino)ethoxy)-6-(4-isopropylpiperazin-1-yl)pyridin-2-yl)-5,7-dimethoxyquinazolin-4(3H)-one bis(trifluoroacetate)] came in with a melting point of 186 to 188 °C.
In the case of `CCC(=O)N1CCN(c2cccc(-c3nc4cc(OC)cc(OC)c4c(=O)[nH]3)n2)CC1` [Example 19, 5,7-Dimethoxy-2-(6-(4-propionylpiperazin-1-yl)pyridin-2-yl)quinazolin-4(3H)-one dihydrochloride], the “FRET activity (IC50 < 30 μM)” value in data set [1] is given as “Active”. In data set [2], the “c-myc activity (IC50 < 30 μM)” value is given as “Not Active”. Further, the “cell proliferation activity” value in data set [3] is “Not Active”. For the same compound, in data set [4], the “IL-6 activity (IC50 < 30 μM)” value was “Not Active”. In addition, in data set [5], the “ApoA-1 activity (EC170 < 30 μM)” value was “Active”.
For `COc1cc(OC)c2c(=O)[nH]c(-c3ccc(OCCO)c(N4CCN(C(C)C)CC4)n3)nc2c1` [Example 13, 2-(5-(2-Hydroxyethoxy)-6-(4-isopropylpiperazin-1-yl)pyridin-2-yl)-5,7-dimethoxyquinazolin-4(3H)-one acetate], in data set [1], the “FRET activity (IC50 < 30 μM)” value is “Active”. Besides, the “c-myc activity (IC50 < 30 μM)” value in data set [2] is reported as “Active”. Moreover, in data set [3], the “cell proliferation activity” value is recorded as “Not Active”. Moreover, the “IL-6 activity (IC50 < 30 μM)” value in data set [4] was “Active”. The “ApoA-1 activity (EC170 < 30 μM)” value in data set [5] is reported as “Active”.
Turning to `COc1cc(OC)c2c(=O)[nH]c(-c3cccc(N4CCN(C)CC4)n3)nc2c1` [Example 15, 5,7-Dimethoxy-2-(6-(4-methylpiperazin-1-yl)pyridin-2-yl)quinazolin-4(3H)-one Hydrochloride], the “FRET activity (IC50 < 30 μM)” value in data set [1] is “Active”. Also, the “c-myc activity (IC50 < 30 μM)” value in data set [2] is given as “Active”. The “cell proliferation activity” value in data set [3] is listed as “Active”. For the same compound, the “IL-6 activity (IC50 < 30 μM)” value in data set [4] is reported as “Active”. Besides, the “ApoA-1 activity (EC170 < 30 μM)” value in data set [5] is recorded as “Active”.
`COc1cc(OC)c2c(=O)[nH]c(-c3cc(Cl)cc(N4CCNCC4)c3)nc2c1` [Example 31, 2-(3-Chloro-5-(piperazin-1-yl)phenyl)-5,7-dimethoxyquinazolin-4(3H)-one]: in data set [1], the “FRET activity (IC50 < 30 μM)” value is “Active”. In addition, the “c-myc activity (IC50 < 30 μM)” value in data set [2] is recorded as “Active”. For the same compound, the “cell proliferation activity” value in data set [3] was “Active”. Further, in data set [4], the “IL-6 activity (IC50 < 30 μM)” value is reported as “Active”. The “ApoA-1 activity (EC170 < 30 μM)” value in data set [5] is recorded as “Active”.
Consider `COc1cc(OC)c2c(=O)[nH]c(-c3cc(Cl)cc(N4CCN(C(C)C)CC4)c3)nc2c1` [Example 32, 2-(3-Chloro-5-(4-isopropylpiperazin-1-yl)phenyl)-5,7-dimethoxyquinazolin-4(3H)-one], for which, in data set [1], the “FRET activity (IC50 < 30 μM)” value is reported as “Active”. The “c-myc activity (IC50 < 30 μM)” value in data set [2] is reported as “Active”. Moreover, the “cell proliferation activity” value in data set [3] is on record as “Active”. Further, the “IL-6 activity (IC50 < 30 μM)” value in data set [4] is given as “Active”. Moreover, the “ApoA-1 activity (EC170 < 30 μM)” value in data set [5] is on record as “Active”.
With `COc1cc(OC)c2c(=O)[nH]c(-c3cccc(N4CCC(N(C)C)CC4)n3)nc2c1` [Example 29, 2-(6-(4-(Dimethylamino)piperidin-1-yl)pyridin-2-yl)-5,7-dimethoxyquinazolin-4(3H)-one], the “FRET activity (IC50 < 30 μM)” value in data set [1] is given as “Active”. In addition, the “c-myc activity (IC50 < 30 μM)” value in data set [2] is “Active”. Moreover, the “cell proliferation activity” value in data set [3] was “Active”. The “IL-6 activity (IC50 < 30 μM)” value in data set [4] is reported as “Active”. Further, in data set [5], the “ApoA-1 activity (EC170 < 30 μM)” value is “Active”.

The values above are taken from US9278940B2, “Cyclic amines as bromodomain inhibitors” (Zenith Epigenetics Corp., priority 2012, dated 2016).
